The text below walks through data of patent publication US11629135B2 (JUBILANT PRODEL LLC, priority 2017, dated 2023).

Data set [1] is described as follows: Metabolic stability in liver microsomes (dog). Format: in vitro ADME. The following applies: dog liver microsomes 0.5 mg/mL, compound 1 μM, NADPH, up to 30 min. The protocol: (§1) Metabolic Stability in Liver Microsomes
(§2) Procedure: Potassium phosphate buffer (66.7 mM, pH 7.4) containing mouse or rat or dog or monkey or human liver microsomes (0.5 mg/mL) was pre-incubated separately with compound (1 μM) and positive control (verapamil, 1 μM) in a 37° C. water bath for 5 min. The reactions were initiated by adding 20 μL of 10 mM NADPH. Reactions without NADPH (0 and 30 min) were also incubated to rule out non-NADPH metabolism or chemical instability in the incubation buffer. All reactions were terminated using 200 μL of ice-cold acetonitrile containing internal standard at 0, 5, 15 and 30 min. The vials were centrifuged at 3000 rpm for 15 min. The reaction mixtures (obtained from the above studies) were extracted, processed and analyzed by LC-MS [Shimadzu SIL LC series (Kyoto, Japan) was coupled to an API-4000 Mass Spectrometer (MDS Sciex, Toronto, Canada)] to monitor the disappearance of compound.
For orientation: Liver microsomes are vesicles of endoplasmic reticulum, rich in cytochrome P450 enzymes.

The nature of data set [2]: Metabolic stability in liver microsomes (human). Format: in vitro ADME. The following applies: human liver microsomes 0.5 mg/mL, compound 1 μM, NADPH, up to 30 min. The protocol:
as §1, §2

For another data set, the target named is T1, CYP3A4 (Homo sapiens, UniProt P08684).
T1 construct: assessed in human liver microsomes (procured from GIBCO Invitrogen); tissue GIBCO Invitrogen; host or cells: human liver microsomes
T1 sequence (P08684 whole entry): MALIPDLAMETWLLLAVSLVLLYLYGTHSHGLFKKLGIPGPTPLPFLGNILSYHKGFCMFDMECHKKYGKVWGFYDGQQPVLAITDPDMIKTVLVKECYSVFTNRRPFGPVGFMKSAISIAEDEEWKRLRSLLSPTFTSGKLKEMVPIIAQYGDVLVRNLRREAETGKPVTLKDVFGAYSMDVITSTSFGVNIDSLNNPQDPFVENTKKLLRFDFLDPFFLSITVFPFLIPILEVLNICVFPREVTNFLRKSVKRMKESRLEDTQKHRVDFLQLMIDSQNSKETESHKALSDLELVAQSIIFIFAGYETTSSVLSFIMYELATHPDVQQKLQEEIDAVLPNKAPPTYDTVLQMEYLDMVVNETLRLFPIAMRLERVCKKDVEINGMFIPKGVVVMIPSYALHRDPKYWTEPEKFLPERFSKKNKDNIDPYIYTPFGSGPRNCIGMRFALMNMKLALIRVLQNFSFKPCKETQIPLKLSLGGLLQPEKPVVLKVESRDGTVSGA
Briefly: CYP inhibition in human liver microsomes (CYP3A4). In kind it is in vitro ADME. The following applies: hydroxylation of midazolam, read-out: predicted IC50, CYP 3A4. The protocol:
(§3) CYP inhibition potential of compound was assessed in human liver microsomes (procured from GIBCO Invitrogen) against CYP3A4, 2D6, 2C9, 2C19 and 1A2 in the following sequential steps. Standard reaction mixture (final volume 300 μL) contained […] potassium phosphate buffer (pH 7.4), protein (0.1, 0.25, 0.5, 0.5 and 0.5 mg/mL concentration for CYP3A4, 2D6, 2C9 2C19 and 1A2 respectively) and compound (at eight different concentration levels ranging from […], added as 0.9 μL DMSO solution with a final DMSO concentration of […]). The mixtures were pre-incubated at 37±1° C. for 5 min. The reaction (in duplicate) was initiated by addition of 30 μL of NADPH (10 mM). Reaction was terminated at 10 min by adding 300 μL of acetonitrile. The activity of liver microsomes was confirmed with positive controls i.e., monitoring the hydroxylation of midazolam for CYP 3A4, hydroxylation of bufuralol for CYP 2D6, hydroxylation of diclofenac for CYP 2C9, hydroxylation of omeprazole for CYP2C19 and O-Deethylation for CYP 1A2. The reaction mixtures (obtained from the above studies) were extracted, processed and analyzed by LC-MS [Shimadzu SIL LC series (Kyoto, Japan) was coupled to an API-4000 Mass Spectrometer (MDS Sciex, Toronto, Canada)].

A further data set concerns the target T2, CYP 2C9 (Homo sapiens, UniProt P11712).
T2 construct: assessed in human liver microsomes (procured from GIBCO Invitrogen); tissue GIBCO Invitrogen; host or cells: human liver microsomes
Briefly: CYP inhibition in human liver microsomes (CYP2C9). In kind it is in vitro ADME. To be noted: hydroxylation of diclofenac, read-out: predicted IC50, CYP 2C9. The protocol:
as §3

Data set [3] concerns RENCA renal cancer cell line. Briefly: In vivo efficacy in RENCA renal model. On the set-up: species or system Balb/c mice. To be noted: oral dosing. The protocol:
In Vivo Efficacy of Compound-45 in RENCA Renal Model (FIG. 1):
RENCA renal cancer cell line was procured from ATCC, USA and grown in the recommended media and culture conditions. Cells in the exponential phase were mixed with equal volume of matrigel in a 1:1 ratio, followed by implantation of 1×10^6 cells/100 μl subcutaneously on the right flank of immunocompetant Balb/c mice (1 site/mouse). Tumor cells were engrafted at the site of injection within 1-2 weeks of implantation and treatment was initiated by randomizing mice into study groups of N=10, when the average tumor volume reached 100 mm^3. Tumor bearing mice were treated with Vehicle (oral), Vehicle (IP), Compound B (orally at 30 mg/kg dose, twice daily) or Anti-PD-L1 mAb (Clone 10F.9G2, BioXcell) intraperitoneally at 0.1 mg/mouse, Q4D. Tumor volume and mouse body weight was measured three times per week during treatment, until the tumor volume reached a maximum of 2000 mm^3. Tumor volume (mm^3) was calculated using the formula—(tumor length)×(tumor width)^2/2. For pharmacokinetic parameters of Compound B, plasma and tumors were isolated at the end of the study and analyzed. Tumor growth inhibition was calculated after normalizing the tumor volume on a given day to that on day 1 based on the formula below: % TGI=[1−(Treatment TVFinal−Treatment TVinitial)/(Vehicle TVFinal−Vehicle TVinitial)]*100

Bounds are passed on as bounds.

T2 sequence (P11712 whole entry): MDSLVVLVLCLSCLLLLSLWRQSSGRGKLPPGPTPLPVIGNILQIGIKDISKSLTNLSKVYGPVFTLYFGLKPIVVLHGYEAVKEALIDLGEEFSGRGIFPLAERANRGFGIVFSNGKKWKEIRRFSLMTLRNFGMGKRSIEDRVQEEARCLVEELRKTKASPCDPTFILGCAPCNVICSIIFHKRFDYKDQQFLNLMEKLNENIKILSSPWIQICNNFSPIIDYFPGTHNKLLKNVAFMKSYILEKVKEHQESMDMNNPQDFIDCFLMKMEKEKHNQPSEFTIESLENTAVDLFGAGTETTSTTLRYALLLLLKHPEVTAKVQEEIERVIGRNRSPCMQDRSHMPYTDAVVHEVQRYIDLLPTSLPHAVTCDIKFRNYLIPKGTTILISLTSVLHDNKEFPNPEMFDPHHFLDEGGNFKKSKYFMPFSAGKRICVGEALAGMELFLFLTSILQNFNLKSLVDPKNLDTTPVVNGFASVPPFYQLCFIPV

Regarding `COc1nc(OCc2cccc(-c3ccccc3)c2C)nc(OC)c1CN1CCCC[C@H]1C(=O)O` [Compound 45, (S)-1-((4,6-dimethoxy-2-((2-methyl-[1,1′-biphenyl]-3-yl)methoxy)pyrimidin-5-yl)methyl)piperidine-2-carboxylic acid], the “Metabolic stability in liver microsomes” value in data set [1] and in data set [2] was greater than 80% each time. For the same compound, the 50% inhibitory concentration (IC50) at CYP3A4 and at CYP 2C9 was greater than 10 µM each time. Further, in data set [3] (RENCA tumor bearing Balb/c mice), the “body weight during the dosing regimen” value is “no significant body weight reduction”. For the same compound, the “efficacy in RENCA renal model (tumor growth)” value in data set [3] (syngeneic Balb/c mice, 30 mg/kg twice daily, comparator Anti-PD-L1 mAb 0.1 mg/mouse IP Q4D) is on record as “better or similar efficacy compared to PD-L1 monoclonal antibody”.
